# Source: US20240352401A1, “FURFURAL-RESISTANT STRAIN AND METHOD FOR IMPROVING FURFURAL-RESISTANT OF STRAIN” (Korea Institute of Science and Technology, priority 2023, published 2024)
# What was measured:
# [1] = system: wild-type Yarrowia lipolytica strain (PO1f, ATCC MYA-2613); experiment: Growth inhibition and glucose consumption of the parent strain according to furfural concentration (Reference Example 1); assay type: cell-based
# Description: Confirmation of the degree of growth inhibition according to furfural in a parent strain Prior to the production of furfural-resistant strains, Yarrowia lipolytica PO1f strain having accession number ATCC MYA-2613, which are wild-type Yarrowia lipolytica, was selected as a parent strain, and the degree of growth inhibition and the degree of glucose consumption according to the concentration of furfural in the wild-type Yarrowia lipolytica strain, and the concentrations of furfural and furoic acid in the culture medium according to the cell culture time were confirmed.
# Specifically, as the culture medium, a minimal medium (YSC medium (Yeast Synthetic Complete medium)) containing 6.7 g/L yeast nitrogen base (YNB), 20 g/L glucose as a carbon source and supplemented with complete supplement mixture (CSM) or CSM-Leu or CSM-Leu-Ura (MP Biomedicals, Solon, OH, USA) used. Furfural was added to the medium at concentrations of 0.1 g/L, 0.2 g/L, 0.3 g/L, 0.4 g/L or 0.5 g/L, respectively, and the growth rate was compared with that when furfural was not added. The culture was inoculated with the wild-type Yarrowia lipolytica strain with an initial OD600 value of 0.2 in 20 mL of the culture medium in a 100 mL Erlenmeyer flask, and then proceeded with shaking culture at 28° C. at 200 rpm. In this case, the wild-type strain is Yarrowia lipolytica PO1f strain with accession number ATCC MYA-2613. The “OD600” refers to the absorbance or optical density at a wavelength of 600 nm. It is possible to measure the density or concentration of microorganisms or cells in a sample by using the measured OD600.
# [2] = system: Yarrowia lipolytica strain; details: very low concentration (~0.5 g/L) of furfural; cited from earlier work
# [3] = furfural 0.1-0.5 g/L in YSC medium, 20 g/L glucose, 28° C., 200 rpm
smiles,measurement,setting,value
O=Cc1ccco1 [furfural],initial growth of the wild-type strain,[1]; 0.2 g/L or more of furfural,growth was delayed
same,growth of the wild-type strain,[1]; 0.5 g/L of furfural,no growth was observed
same,growth of the wild-type Yarrowia lipolytica strain as the furfural concentration increased,[1]; [3],clearly inhibited
same,rate of glucose consumption as the furfural concentration increased,[1]; [3],reduced
same,cell growth of Yarrowia lipolytica strain,[2],significantly inhibited
